Test results as given in US20070219186A1, “Pyrazolo[1,5-A]pyrimidine derivatives and methods of use thereof” (priority 2006, published 2007).
Like-named read-outs stand apart in the source and are kept apart here.

Molecular target: T1, human B-Raf (Homo sapiens, UniProt P15056)
T1 construct: Flag; GST; made in house; host or cells: Sf9 insect cells (B-Raf); E. coli (MEK1-GST)
Assay: B-Raf Kinase to MEK1 ELISA
Type: biochemical
Details: for inhibition at 10 µM: read-out: % Inhib./10 uM
Summary of the method: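 Read-out is a DELFIA europium signal from phospho-MEK1 (Ser217/221) antibody after capture of GST-MEK1 (50 nM final) on anti-GST plates. Phosphorylation comes from Sf9-expressed Flag/GST human B-Raf (~20 ng) with ATP/MgCl2, 60 min RT, pH 7.2 MOPS.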

[1] = median, cpd concentrations from 10 μM to 30 nM in half log dilutions, read-out: Median IC50

T1 sequence (P15056 whole entry): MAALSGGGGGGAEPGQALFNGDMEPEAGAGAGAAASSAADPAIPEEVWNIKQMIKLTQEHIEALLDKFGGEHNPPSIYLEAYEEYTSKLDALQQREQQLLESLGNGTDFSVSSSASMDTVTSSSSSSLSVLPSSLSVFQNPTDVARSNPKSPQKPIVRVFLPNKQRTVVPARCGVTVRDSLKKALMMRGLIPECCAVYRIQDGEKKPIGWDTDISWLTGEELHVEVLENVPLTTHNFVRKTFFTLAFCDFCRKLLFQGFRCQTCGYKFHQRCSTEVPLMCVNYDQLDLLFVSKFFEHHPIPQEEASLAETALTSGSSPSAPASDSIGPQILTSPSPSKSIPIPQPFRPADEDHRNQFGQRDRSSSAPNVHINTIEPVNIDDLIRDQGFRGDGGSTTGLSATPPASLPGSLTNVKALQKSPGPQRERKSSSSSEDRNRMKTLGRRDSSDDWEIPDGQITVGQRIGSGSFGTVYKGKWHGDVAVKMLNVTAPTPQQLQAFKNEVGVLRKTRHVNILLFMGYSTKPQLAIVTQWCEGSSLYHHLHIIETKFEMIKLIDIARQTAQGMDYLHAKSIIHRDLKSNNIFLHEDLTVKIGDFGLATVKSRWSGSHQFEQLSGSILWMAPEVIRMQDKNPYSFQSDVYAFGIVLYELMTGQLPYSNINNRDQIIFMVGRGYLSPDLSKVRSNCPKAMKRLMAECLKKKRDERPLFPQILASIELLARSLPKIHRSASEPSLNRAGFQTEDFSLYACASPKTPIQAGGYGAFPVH

| SMILES | IC50 [1] [nM] | inhibition at 10 µM [%] | IC50 [nM] | inhibition at 10 µM (single point assay, 10 uM) [%] |
| --- | --- | --- | --- | --- |
| CCOC(=O)c1cnn2c(-c3cccc(NC(=O)c4ccc(C(F)(F)F)cc4)c3)ccnc12 [Example 10, ethyl 7-(3-{[4-(trifluoromethyl)benzoyl]amino}phenyl)pyrazolo[1,5-a]pyrimidine-3-carboxylate] | > 10000 | 27 | – | – |
| NC(=O)c1cnn2c(-c3cccc(NC(=O)c4cccc(C(F)(F)F)c4)c3)ccnc12 [Example 61, 7-(3-{[3-(trifluoromethyl)benzoyl]amino}phenyl)pyrazolo[1,5-a]pyrimidine-3-carboxamide] | > 10000 | 16 | – | – |
| CCOC(=O)c1cnn2c(-c3cccc(NC(=O)c4cccc(C(F)(F)F)c4)c3)ccnc12 [Example 1, Pyrazolo[1,5-a]pyrimidine-3-carboxylic acid, 7-[3-[[3-(trifluoromethyl)-benzoyl]amino]phenyl]-, ethyl ester] | 720 | 66 | – | – |
| CC(=O)Nc1ccc(-c2cnn3c(-c4cccc(NC(=O)c5ccc(C)c(C(F)(F)F)c5)c4)ccnc23)cc1 [Example 184, N-(3-{3-[4-(acetylamino)phenyl]pyrazolo[1,5-a]pyrimidin-7-yl}phenyl)-4-methyl-3-(trifluoromethyl)benzamide] | – | 89 | 200 | – |
| COC[C@H]1CCCN1c1cc2nccc(-c3cccc(NC(=O)c4cccc(C(F)(F)F)c4)c3)n2n1 [Example 210, N-(3-{2-[(2R)-2-(methoxymethyl)pyrrolidin-1-yl]pyrazolo[1,5-a]pyrimidin-7-yl}phenyl)-3-(trifluoromethyl)benzamide] | 2500 | 52 | – | – |
| Cc1ccc(C(=O)Nc2cccc(-c3ccnc4c(C(N)=O)cnn34)c2)cc1C(F)(F)F [Example 67, 7-(3-{[4-methyl-3-(trifluoromethyl)benzoyl]amino}phenyl)pyrazolo[1,5-a]pyrimidine-3-carboxamide] | > 10000 | 6 | – | – |
| O=C(Nc1cccc(-c2ccnc3cc(N4CCOCC4)nn23)c1)c1ccc(F)c(C(F)(F)F)c1 [Example 196, 4-fluoro-N-[3-(2-morpholin-4-ylpyrazolo[1,5-a]pyrimidin-7-yl)phenyl]-3-(trifluoromethyl)benzamide] | 90 | 96 | – | – |
| CCOC(=O)c1cnn2c(-c3cccc(NC(=O)c4ccc(F)cc4C(F)(F)F)c3)ccnc12 [Example 76, ethyl 7-(3-{[4-fluoro-2-(trifluoromethyl)benzoyl]amino}phenyl)pyrazolo[1,5-a]pyrimidine-3-carboxylate] | > 10000 | 0 | – | – |
| O=C(Nc1cccc(-c2ccnc3cc(-c4ccncc4)nn23)c1)c1ccc(Cl)c(C(F)(F)F)c1 [Example 129, 4-chloro-N-[3-(2-pyridin-4-ylpyrazolo[1,5-a]pyrimidin-7-yl)phenyl]-3-(trifluoromethyl)benzamide] | – | 86 | 50 | – |
| O=C(Nc1cccc(-c2ccnc3c(C(=O)NCc4ccccc4)cnn23)c1)c1cccc(C(F)(F)F)c1 [Example 57, N-benzyl-7-(3-{[3-(trifluoromethyl)benzoyl]amino}phenyl)pyrazolo[1,5-a]pyrimidine-3-carboxamide] | 1640 | 51 | – | – |
| CNC(=O)c1cnn2c(-c3cccc(NC(=O)c4cccc(C(F)(F)F)c4)c3)ccnc12 [Example 31, N-methyl-7-(3-{[3-(trifluoromethyl)benzoyl]amino}phenyl)-pyrazolo[1,5-a]pyrimidine-3-carboxamide] | > 10000 | 48 | – | – |
| CCOC(=O)c1cnn2c(-c3cccc(NC(=O)c4cccc(Br)c4)c3)ccnc12 [Example 4, ethyl 7-{3-[(3-bromobenzoyl)amino]phenyl}pyrazolo[1,5-a]pyrimidine-3-carboxylate] | > 10000 | 4 | – | – |
| O=C(Nc1cccc(-c2ccnc3cc(-c4ccncc4)nn23)c1)c1cccc(Cl)c1 [Example 150, 3-chloro-N-[3-(2-pyridin-4-ylpyrazolo[1,5-a]pyrimidin-7-yl)phenyl]benzamide] | – | – | 1100 | – |
| O=C(Nc1ccc(F)c(-c2ccnc3ccnn23)c1)c1cccc(C(F)(F)F)c1 [Example 318, N-(4-fluoro-3-pyrazolo[1,5-a]pyrimidin-7-ylphenyl)-3-(trifluoromethyl)benzamide] | 3550 | 59 | – | – |
| O=C(Nc1cccc(-c2ccnc3cc(-c4ccncc4)nn23)c1)c1ccc(Br)s1 [Example 239, 5-bromo-N-[3-(2-pyridin-4-ylpyrazolo[1,5-a]pyrimidin-7-yl)phenyl]thiophene-2-carboxamide] | 200 | 86 | – | – |

The next lines start with the values.

| IC50 [1] [nM] | inhibition at 10 µM [%] | IC50 [nM] | inhibition at 10 µM (single point assay, 10 uM) [%] | SMILES |
| --- | --- | --- | --- | --- |
| 8400 | 45 | – | – | Cc1ccc(C(=O)Nc2cccc(-c3ccnc4c(C#N)c(N5CCNCC5)nn34)c2)cc1C(F)(F)F [Example 68, N-[3-(3-cyano-2-piperazin-1-ylpyrazolo[1,5-a]pyrimidin-7-yl)phenyl]-4-methyl-3-(trifluoromethyl)benzamide] |
| – | 94 | 113 | – | O=C(Nc1cccc(-c2ccnc3cc(-c4ccnc(NCCCN5CCCC5=O)c4)nn23)c1)c1cccc(C(F)(F)F)c1 [Example 261, N-{3-[2-(2-{[3-(2-oxopyrrolidin-1-yl)propyl]amino}pyridin-4-yl)pyrazolo[1,5-a]pyrimidin-7-yl]phenyl}-3-(trifluoromethyl)benzamide] |
| > 10000 | 20 | – | – | CCOC(=O)c1cnn2c(-c3ccc(OCc4ccccc4)c(NC(=O)c4ccc(C)c(C(F)(F)F)c4)c3)ccnc12 [Example 108, ethyl 7-(4-(benzyloxy)-3-{[4-methyl-3-(trifluoromethyl)benzoyl]amino}phenyl)pyrazolo[1,5-a]pyrimidine-3-carboxylate] |
| 8000 | 60 | – | – | O=C(Nc1cccc(-c2ccnc3c(C(=O)NCCN4CCOCC4)cnn23)c1)c1cccc(C(F)(F)F)c1 [Example 52, N-(2-morpholin-4-ylethyl)-7-(3-{[3-(trifluoromethyl)benzoyl]amino}phenyl)pyrazolo[1,5-a]pyrimidine-3-carboxamide] |
| 1330 | 94 | – | – | O=C(Nc1cccc(-c2ccnc3c(Br)cnn23)c1)Nc1cccc(C(F)(F)F)c1 [Example 166, N-[3-(3-bromopyrazolo[1,5-a]pyrimidin-7-yl)phenyl]-N′-[3-(trifluoromethyl)phenyl]urea] |
| > 10000 | 37 | – | – | CCOC(=O)c1cnn2c(-c3cccc(NC(=O)Nc4ccc(Cl)cc4)c3)ccnc12 [Example 34, ethyl 7-[3-({[(4-chlorophenyl)amino]carbonyl}amino)phenyl]pyrazolo[1,5-a]pyrimidine-3-carboxylate] |
| 360 | 86 | – | – | CCOC(=O)c1cnn2c(-c3cccc(NC(=O)c4cccc(C(F)(F)F)c4)c3)c(C)cnc12 [Example 176, ethyl 6-methyl-7-(3-{[3-(trifluoromethyl)benzoyl]amino}phenyl)pyrazolo[1,5-a]pyrimidine-3-carboxylate] |
| – | 90 | 650 | – | Cc1cnc2c(-c3cccnc3)cnn2c1-c1cccc(NC(=O)c2cccc(C(F)(F)F)c2)c1 [Example 179, N-[3-(6-methyl-3-pyridin-3-ylpyrazolo[1,5-a]pyrimidin-7-yl)phenyl]-3-(trifluoromethyl)benzamide] |
| > 10000 | 33 | – | – | CCOC(=O)c1cnn2c(-c3cccc(NC(=O)Nc4ccc(Cl)cc4C)c3)ccnc12 [Example 36, ethyl 7-[3-({[(4-chloro-2-methylphenyl)amino]carbonyl}amino)phenyl]pyrazolo[1,5-a]pyrimidine-3-carboxylate] |
| 570 | 77 | – | – | CCOC(=O)c1cnn2c(-c3cccc(NC(=O)Nc4ccc(C)c(Cl)c4)c3)ccnc12 [Example 82, ethyl 7-[3-({[(3-chloro-4-methylphenyl)amino]carbonyl}amino)phenyl]pyrazolo[1,5-a]pyrimidine-3-carboxylate] |
| 26 | 86 | – | – | CN(C)CCc1ccc(-c2cnn3c(-c4cccc(NC(=O)c5cccc(C(F)(F)F)c5)c4)ccnc23)cc1 [Example 289, N-[3-(3-{4-[2-(dimethylamino)ethyl]phenyl}pyrazolo[1,5-a]pyrimidin-7-yl)phenyl]-3-(trifluoromethyl)benzamide] |
| > 10000 | 24 | – | – | O=C(Nc1cccc(-c2ccnc3cc(-c4ccc(Cl)cc4)nn23)c1)c1cccc(C(F)(F)F)c1 [Example 115, N-{3-[2-(4-chlorophenyl)pyrazolo[1,5-a]pyrimidin-7-yl]phenyl}-3-(trifluoromethyl)benzamide] |
| – | 67 | 3160 | – | Cc1cnc2c(Br)cnn2c1-c1cccc(NC(=O)c2cccc(C(F)(F)F)c2)c1 [Example 178, N-[3-(3-bromo-6-methylpyrazolo[1,5-a]pyrimidin-7-yl)phenyl]-3-(trifluoromethyl)benzamide] |
| > 10000 | 0 | – | – | CCOC(=O)c1cnn2c(-c3ccc(OC)c(NC(=O)c4ccc(C)c(C(F)(F)F)c4)c3)ccnc12 [Example 107, ethyl 7-(4-methoxy-3-{[4-methyl-3-(trifluoromethyl)benzoyl]amino}phenyl)pyrazolo[1,5-a]pyrimidine-3-carboxylate] |
| > 10000 | 64 | – | – | O=C(Nc1cccc(-c2ccnc3c(Br)cnn23)c1)c1ccc(Cl)c(Cl)c1 [Example 165, N-[3-(3-bromopyrazolo[1,5-a]pyrimidin-7-yl)phenyl]-3,4-dichlorobenzamide] |
| 500 | – | – | 76 | CCOC(=O)c1cnn2c(-c3cccc(NC(=O)c4ccc(C)c(C(F)(F)F)c4)c3)ccnc12 [Example 26, ethyl 7-(3-{[4-methyl-3-(trifluoromethyl)benzoyl]amino}phenyl)pyrazolo[1,5-a]pyrimidine-3-carboxylate] |
